Results from ChEMBL document CHEMBL1201862, “PubChem BioAssay data set” (2004).
Activity calls are given as the source filed them.

What was measured:
Cytochrome P450 2C9 = Cytochrome P450 2C9 (Homo sapiens, UniProt P11712)
Cytochrome P450 2D6 = Cytochrome P450 2D6 (Homo sapiens, UniProt P10635);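 also: CYP2D6 member of a cytochrome P450 panel assay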
Cytochrome P450 2C19 = Cytochrome P450 2C19 (Homo sapiens, UniProt P33261); test: Cytochrome panel assay with activity outcomes. Panel member name: p450-cyp2c19 Compounds with AC50 equal or less than 10 uM are considered active; type: functional
Sequence of Cytochrome P450 2C19 (P33261 whole entry): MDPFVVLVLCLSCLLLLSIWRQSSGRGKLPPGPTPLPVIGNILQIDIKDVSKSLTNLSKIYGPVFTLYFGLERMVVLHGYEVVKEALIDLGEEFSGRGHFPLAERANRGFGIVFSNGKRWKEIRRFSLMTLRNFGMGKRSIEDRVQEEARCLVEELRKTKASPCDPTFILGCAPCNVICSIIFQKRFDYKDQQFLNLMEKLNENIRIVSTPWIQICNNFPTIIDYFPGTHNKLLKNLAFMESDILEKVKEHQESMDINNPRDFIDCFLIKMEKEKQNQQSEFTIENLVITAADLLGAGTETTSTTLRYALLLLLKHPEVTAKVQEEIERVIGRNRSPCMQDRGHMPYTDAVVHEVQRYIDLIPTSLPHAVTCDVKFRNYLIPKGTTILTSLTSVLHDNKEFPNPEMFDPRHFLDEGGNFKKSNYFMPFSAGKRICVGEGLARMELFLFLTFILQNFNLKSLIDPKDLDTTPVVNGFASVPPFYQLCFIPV

Cytochrome P450 1A2 = biological target: T1, Cytochrome P450 1A2 (Homo sapiens, UniProt P05177);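 also: PubChem cytochrome P450 panel assay, CYP1A2 panel member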
T1 sequence (P05177 whole entry): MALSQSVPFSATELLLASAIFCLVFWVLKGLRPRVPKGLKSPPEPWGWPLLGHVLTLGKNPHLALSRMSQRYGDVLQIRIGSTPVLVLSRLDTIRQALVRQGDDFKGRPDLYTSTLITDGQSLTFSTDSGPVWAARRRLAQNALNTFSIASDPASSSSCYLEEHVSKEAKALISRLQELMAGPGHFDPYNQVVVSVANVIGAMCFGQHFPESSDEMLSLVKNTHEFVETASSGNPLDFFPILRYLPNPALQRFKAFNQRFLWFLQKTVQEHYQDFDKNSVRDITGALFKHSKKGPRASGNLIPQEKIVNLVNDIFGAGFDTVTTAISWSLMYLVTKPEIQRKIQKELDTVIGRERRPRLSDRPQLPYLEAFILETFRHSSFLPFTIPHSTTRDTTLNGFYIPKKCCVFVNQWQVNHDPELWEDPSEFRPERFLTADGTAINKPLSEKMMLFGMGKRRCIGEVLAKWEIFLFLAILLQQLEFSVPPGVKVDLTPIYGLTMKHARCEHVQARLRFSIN

[1] = biological target: T2, Replicative DNA helicase DnaB (Mycobacterium tuberculosis, UniProt P9WMR3); test: DnaB intein splicing inhibitors, dose response, biochemical, cell-free fluorescence (AID 449749); type: functional
T2 sequence (P9WMR3 whole entry): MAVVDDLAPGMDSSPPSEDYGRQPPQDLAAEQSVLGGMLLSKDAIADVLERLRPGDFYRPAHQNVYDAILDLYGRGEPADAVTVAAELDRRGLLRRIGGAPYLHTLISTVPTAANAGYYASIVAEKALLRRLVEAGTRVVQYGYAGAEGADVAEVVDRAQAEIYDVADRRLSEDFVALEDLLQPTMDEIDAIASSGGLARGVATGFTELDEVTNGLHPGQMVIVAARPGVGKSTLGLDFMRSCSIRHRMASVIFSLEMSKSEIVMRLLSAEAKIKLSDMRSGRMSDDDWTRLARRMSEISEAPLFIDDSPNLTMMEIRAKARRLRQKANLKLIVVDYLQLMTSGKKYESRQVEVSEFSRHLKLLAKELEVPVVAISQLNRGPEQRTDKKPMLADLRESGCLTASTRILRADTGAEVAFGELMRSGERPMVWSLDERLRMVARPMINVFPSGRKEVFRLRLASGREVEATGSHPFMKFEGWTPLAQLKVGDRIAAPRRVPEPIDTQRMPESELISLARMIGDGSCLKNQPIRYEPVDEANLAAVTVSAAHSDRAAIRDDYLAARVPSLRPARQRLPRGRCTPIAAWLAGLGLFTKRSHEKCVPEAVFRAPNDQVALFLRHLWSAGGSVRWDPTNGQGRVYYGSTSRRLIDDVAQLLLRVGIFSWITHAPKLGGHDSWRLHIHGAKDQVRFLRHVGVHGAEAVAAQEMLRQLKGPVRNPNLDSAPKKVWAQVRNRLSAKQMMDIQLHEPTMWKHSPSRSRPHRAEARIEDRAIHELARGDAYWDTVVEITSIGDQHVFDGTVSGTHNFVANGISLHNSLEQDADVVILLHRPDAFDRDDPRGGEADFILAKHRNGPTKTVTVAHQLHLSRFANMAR

Protein RecA = biological target: T3, Protein RecA (Mycobacterium tuberculosis, UniProt P9WHJ3); test: Fluorescence Cell-Free Homogeneous Dose Retest to Identify Inhibitors of RecA-Intein Splicing Activity. [Related pubchem assays (depositor defined):AID2097, AID2223, AID489010, AID492950]; type: functional
T3 sequence (P9WHJ3 whole entry): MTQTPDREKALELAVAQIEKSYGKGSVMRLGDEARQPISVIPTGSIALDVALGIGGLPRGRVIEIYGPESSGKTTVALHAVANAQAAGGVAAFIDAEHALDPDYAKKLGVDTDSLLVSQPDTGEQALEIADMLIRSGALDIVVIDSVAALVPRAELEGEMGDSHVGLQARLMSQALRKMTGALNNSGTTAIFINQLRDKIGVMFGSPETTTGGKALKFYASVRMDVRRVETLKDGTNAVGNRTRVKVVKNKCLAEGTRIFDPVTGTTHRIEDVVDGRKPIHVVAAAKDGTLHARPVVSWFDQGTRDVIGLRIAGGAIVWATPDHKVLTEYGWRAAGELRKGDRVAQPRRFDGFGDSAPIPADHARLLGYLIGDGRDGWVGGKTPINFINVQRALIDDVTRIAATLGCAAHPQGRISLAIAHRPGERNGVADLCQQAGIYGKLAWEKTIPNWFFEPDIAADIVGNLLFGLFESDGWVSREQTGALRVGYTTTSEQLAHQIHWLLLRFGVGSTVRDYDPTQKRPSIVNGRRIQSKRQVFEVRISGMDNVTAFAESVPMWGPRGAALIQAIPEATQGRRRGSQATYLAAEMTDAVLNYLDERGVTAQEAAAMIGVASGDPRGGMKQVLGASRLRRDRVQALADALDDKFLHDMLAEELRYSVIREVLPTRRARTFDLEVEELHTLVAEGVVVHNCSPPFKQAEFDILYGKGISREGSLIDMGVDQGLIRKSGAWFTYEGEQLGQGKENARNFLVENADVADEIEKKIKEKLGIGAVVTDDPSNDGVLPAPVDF

[2] = biological target: T4, Rac GTPase-activating protein 1 (Homo sapiens, UniProt Q9H0H5); test: MgcRacGAP GTPase-activating activity inhibitors, confirmation, biochemical, ADP Hunter fluorescence, primary and confirmatory (AID 624330); type: functional
T4 sequence (Q9H0H5 whole entry): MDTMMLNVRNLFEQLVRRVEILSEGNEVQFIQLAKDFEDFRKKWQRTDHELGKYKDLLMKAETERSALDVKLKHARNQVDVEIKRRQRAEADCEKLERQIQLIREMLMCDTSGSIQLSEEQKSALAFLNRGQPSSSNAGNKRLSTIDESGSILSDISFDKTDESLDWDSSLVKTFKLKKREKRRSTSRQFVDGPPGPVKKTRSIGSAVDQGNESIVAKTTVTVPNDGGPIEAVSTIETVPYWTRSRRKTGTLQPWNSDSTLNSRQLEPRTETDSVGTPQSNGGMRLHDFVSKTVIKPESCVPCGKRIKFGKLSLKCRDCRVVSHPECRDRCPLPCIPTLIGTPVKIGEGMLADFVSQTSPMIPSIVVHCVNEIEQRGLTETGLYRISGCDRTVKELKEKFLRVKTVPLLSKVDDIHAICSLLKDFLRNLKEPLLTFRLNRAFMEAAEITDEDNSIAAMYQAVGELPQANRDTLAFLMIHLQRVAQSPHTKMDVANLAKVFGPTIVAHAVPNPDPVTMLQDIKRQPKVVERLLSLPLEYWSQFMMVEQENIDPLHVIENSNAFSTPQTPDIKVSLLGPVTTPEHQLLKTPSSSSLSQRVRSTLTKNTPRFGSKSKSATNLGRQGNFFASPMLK

Sequence of Cytochrome P450 2D6 (P10635 whole entry): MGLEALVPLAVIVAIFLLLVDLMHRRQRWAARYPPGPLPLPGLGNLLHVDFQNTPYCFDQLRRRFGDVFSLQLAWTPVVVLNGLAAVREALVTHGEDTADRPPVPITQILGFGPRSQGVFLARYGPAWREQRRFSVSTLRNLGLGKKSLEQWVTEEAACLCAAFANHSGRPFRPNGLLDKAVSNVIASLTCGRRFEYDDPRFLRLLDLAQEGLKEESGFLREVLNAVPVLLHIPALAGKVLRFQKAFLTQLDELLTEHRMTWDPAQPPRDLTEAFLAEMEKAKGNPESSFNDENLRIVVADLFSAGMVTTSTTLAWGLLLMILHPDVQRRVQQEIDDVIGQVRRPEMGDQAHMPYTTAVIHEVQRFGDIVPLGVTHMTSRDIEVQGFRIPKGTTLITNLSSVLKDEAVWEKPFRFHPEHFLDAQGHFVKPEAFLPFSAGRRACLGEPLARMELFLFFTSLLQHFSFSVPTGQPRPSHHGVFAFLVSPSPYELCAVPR
Sequence of Cytochrome P450 2C9 (P11712 whole entry): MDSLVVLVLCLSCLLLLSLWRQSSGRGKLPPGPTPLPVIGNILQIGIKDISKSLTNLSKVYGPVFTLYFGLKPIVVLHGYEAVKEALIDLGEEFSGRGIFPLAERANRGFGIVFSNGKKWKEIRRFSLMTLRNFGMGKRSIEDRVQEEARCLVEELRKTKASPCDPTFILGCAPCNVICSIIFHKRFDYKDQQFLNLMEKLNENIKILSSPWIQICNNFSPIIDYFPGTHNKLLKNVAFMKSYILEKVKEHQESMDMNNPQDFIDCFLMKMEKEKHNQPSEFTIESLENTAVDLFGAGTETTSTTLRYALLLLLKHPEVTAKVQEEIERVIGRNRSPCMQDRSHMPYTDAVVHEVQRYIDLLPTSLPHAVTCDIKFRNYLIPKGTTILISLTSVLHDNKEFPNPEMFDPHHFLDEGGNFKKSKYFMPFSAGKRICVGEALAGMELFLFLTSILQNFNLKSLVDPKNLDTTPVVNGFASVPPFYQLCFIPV

COC(=O)CSc1nnc(CNc2ccc(Cl)cc2)n1-c1ccccc1
AC50 (Cytochrome P450 2C9): 22.4 µM (inconclusive)

CN(C)C(=O)c1ccc(-c2nc(NCc3ccccc3)c3ccccc3n2)cc1
AC50 (Cytochrome P450 2D6): 39.8 µM (inconclusive) | AC50 (Cytochrome P450 2C19; read-out: AC50): 25.1 µM (inconclusive)

COC(=O)[C@@]1(Cc2ccccc2)[C@H]2c3cc(C(=O)N4CCCC4)n(Cc4ccccn4)c3C[C@H]2CN1C(=O)c1ccccc1
AC50 (Cytochrome P450 2D6): 39.8 µM (inconclusive)

COc1ccccc1NC(=O)CN1CCN(CC(=O)Nc2ccc(OCc3ccccc3)cc2)CC1
AC50 (Cytochrome P450 2D6): 20 µM (inconclusive) | AC50 (Cytochrome P450 1A2): 10 µM (inconclusive)

O=c1[nH]cc(NCCc2ccccc2)c(=O)[nH]1
AC50 [1]: > 380 µM (inconclusive) | EC50 (Protein RecA): 10.1 µM (active)

COc1ccc(C(=O)NC2CC3CCCC(C2)N3CC(C)C)cc1OC (centres undefined)
AC50 (Cytochrome P450 2C9): 22.4 µM (inconclusive)

COc1ccc(-n2ncc3c(NCC4CCCO4)ncnc32)cc1 (centres undefined)
AC50 (Cytochrome P450 2C9): 12.6 µM (inconclusive) | AC50 (Cytochrome P450 2C19; read-out: AC50): 8.91 µM (inconclusive)

Cn1cc(C(=O)c2cccc(Cl)c2Cl)cc1C(=O)O
AC50 (Cytochrome P450 2C9): 31.6 µM (inconclusive)

Cc1noc(C)c1-c1cc(N(C)Cc2ccco2)ncn1
AC50 (Cytochrome P450 2C19; read-out: AC50): 15.8 µM (inconclusive)

Cc1ccc(C(=O)Oc2cc(C)n(C)c(=O)c2)cc1
AC50 (Cytochrome P450 2C9): 11.2 µM (inconclusive) | AC50 (Cytochrome P450 1A2): 25.1 µM (inconclusive)

Fc1ccc(-c2ccnc3nc(N4CCOCC4)nn23)cc1
AC50 (Cytochrome P450 2C19; read-out: AC50): 3.55 µM (inconclusive)

Cc1cccn2c(NCc3ccc4c(c3)OCO4)c(-c3ccc(O)cc3)nc12
IC50 [2]: 68.7 µM (active)

COc1ccc(NCc2nnc(SCc3ccccc3)n2-c2ccc(OC)cc2)cc1
AC50 (Cytochrome P450 2C9): 12.6 µM (inconclusive) | AC50 (Cytochrome P450 1A2): 17.8 µM (inconclusive)

COc1cccc(/C=N/NC(=O)c2c(-c3ccccc3)noc2C)c1
AC50 (Cytochrome P450 2D6): 17.8 µM (inconclusive)

O=C(NCc1ccccc1)/C(=C\c1ccc(O)cc1)NC(=O)c1ccco1
IC50 [2]: 141 µM (active)

Cc1cc(OCc2nc3ccccc3s2)ccc1N
IC50 [2]: 60.7 µM (active)

COc1ccccc1N1CCN(CCN(C(=O)C2CCCCC2)c2ccccn2)CC1 [WAY-100,635]
AC50 (Cytochrome P450 2D6): 31.6 µM (inconclusive)

CCOc1ccccc1C1C(C(N)=O)=C(C)Nc2nc(-c3ccc(OC)cc3)nn21 (centres undefined)
AC50 (Cytochrome P450 2D6): 1 µM (inconclusive) | AC50 (Cytochrome P450 2C9): 15.8 µM (inconclusive) | AC50 (Cytochrome P450 1A2): 15.8 µM (inconclusive)

Cn1cccc1C(=O)N1CCC2(CC1)CCN(c1ccncc1)CC2
AC50 (Cytochrome P450 2D6): 25.1 µM (inconclusive) | AC50 (Cytochrome P450 1A2): 15.8 µM (inconclusive)

CC(C)Oc1ccc(OCCn2c(S)nc3c(N)ncnc32)cc1
IC50 [2]: 95.3 µM (active)

COc1ccccc1CNc1cc(-c2cccnc2)ncn1
AC50 (Cytochrome P450 2C19; read-out: AC50): 15.8 µM (inconclusive)

COc1cc(-c2nc3cnccn3c2Nc2c(C)cccc2C)ccc1O
IC50 [2]: 46.4 µM (active)

COc1cc(/C=N/NC(=O)c2[nH]nc3c2CCc2ccccc2-3)ccc1O
IC50 [2]: 54.3 µM (active)

Cc1ccc2c(CC(=O)OCc3cc(=O)n4c(n3)sc3ccccc34)coc2c1
AC50 (Cytochrome P450 2D6): 31.6 µM (inconclusive)

O=c1cc(-c2ccc(O)c(O)c2)oc2cc(O)c([C@@H]3O[C@H](CO)[C@@H](O)[C@H](O)[C@H]3O)c(O)c12 [ISOORIENTIN]
IC50 [2]: 40.9 µM (active)

COc1cc(/C=N/NC(=O)c2cccnc2)ccc1OC(=O)c1ccco1
AC50 (Cytochrome P450 2C9): 28.2 µM (inconclusive) | AC50 (Cytochrome P450 2C19; read-out: AC50): 8.91 µM (inconclusive)

Cc1ccccc1-c1cncnc1NCCN1CCOCC1
AC50 (Cytochrome P450 2D6): 39.8 µM (inconclusive) | AC50 (Cytochrome P450 1A2): 15.8 µM (inconclusive)

O=C(CSc1nc2ccccc2s1)NNC(=S)Nc1ccc(Br)cc1
AC50 (Cytochrome P450 2D6): 3.55 µM (inconclusive)

O=C(ON=C1CCN(S(=O)(=O)c2ccccc2)CC1)c1ccccc1
AC50 (Cytochrome P450 2C9): 31.6 µM (inconclusive)

CN(C)c1ccc(-c2cncnc2-n2ccnc2)cc1
AC50 (Cytochrome P450 2D6): 39.8 µM (inconclusive)

Cn1c(=O)c(C(=O)CN2CCOCC2)c(N)n(Cc2ccccc2)c1=O
AC50 (Cytochrome P450 2D6): 7.94 µM (inconclusive) | AC50 (Cytochrome P450 2C19; read-out: AC50): 39.8 µM (inconclusive)

c1ccc2c(Nc3ccncc3)nc(-c3ccoc3)nc2c1
AC50 (Cytochrome P450 2D6): 15.8 µM (inconclusive)

Cc1ccccc1-c1cc(NCc2ccccc2)ncn1
AC50 (Cytochrome P450 2D6): 31.6 µM (inconclusive)

O=C(c1cnccn1)N1CCC2(CCCN(c3cccc(-c4ccccc4)c3)C2)CC1
AC50 (Cytochrome P450 2C19; read-out: AC50): 7.94 µM (inconclusive)

Cc1cc(C)cc(-n2c(C)cc(C=C(C#N)C#N)c2C)c1
AC50 (Cytochrome P450 2C9): 2.51 µM (inconclusive)

Nc1nc(N)c(CCCCc2ccccc2)c(N)n1
AC50 (Cytochrome P450 2D6): 3.98 µM (inconclusive)

CN(CCCCCCN(C)Cc1ccccc1O)Cc1ccccc1O
IC50 [2]: 73.6 µM (active)

c1ccc2c(c1)ncn2Cc1nnc2sc(-c3ccc4c(c3)OCO4)nn12
AC50 (Cytochrome P450 2D6): 15.8 µM (inconclusive) | AC50 (Cytochrome P450 1A2): 1.12 µM (inconclusive) | AC50 (Cytochrome P450 2C19; read-out: AC50): 15.8 µM (inconclusive)

COc1cc(/C=N/NC(=O)C2CCN(CC(O)COCc3ccccc3)CC2)ccc1O (centres undefined)
IC50 [2]: 31.5 µM (active)

COc1cc(CNCc2cc(OC)c(OC)c(OC)c2)cc(OC)c1
IC50 [2]: 203 µM (active)

CC(C(=O)NCC(=O)Nc1ccc(F)c(F)c1F)N1CCN(c2ccc(O)cc2)CC1 (centres undefined)
IC50 [2]: 42.5 µM (active)

O=C(c1ccncc1)N1CCC2(CC1)CCN(c1cccc(-c3ccccc3)c1)CC2
AC50 (Cytochrome P450 2C9): 12.6 µM (inconclusive) | AC50 (Cytochrome P450 1A2): 20 µM (inconclusive)

CN1CCN(C(=O)C(C(=O)c2ccc(F)cc2)n2ccccc2=O)CC1 (centres undefined)
AC50 (Cytochrome P450 2C19): inconclusive

Cc1cccn2c(S)nnc12
IC50 [2]: 17.2 µM (active)
